Among the test systems are SK-MEL-2; COLO 205; SW-620; SN12C; SF-268; HT-29; HCT-15; NCI-H460; SK-MEL-5; NCI-H23; UACC-62; T47D; K562; HOP-62; MDA-MB-231; SR; HOP-92; KM12; SK-OV-3.
What all share (assay): DTP human tumour cell line panel, 48 h

SMILES strings stand for the structures.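 96-well plates; 48 h exposure; 5 concentrations. Endpoints by linear interpolation between flanking doses. Not reached: highest tested concentration assigned. Abbreviation: GI50, concentration required for 50% inhibition of growth.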 Active and inactive are the calls of the source. No stated cut-off is given here; in the data, active = GI50 up to about 1.1 µM and inactive = higher. A value given as a limit tells only on which side of the number the result lay.

Turning to `CCOC(=O)CCc1c(C)c2ccc(O)cc2oc1=O`, the GI50 in the experiment with SK-MEL-2, in the experiment on COLO 205, with SW-620, with SN12C, in the experiment on SF-268 and in the experiment with HT-29 was > 100 µM (inactive) throughout. For the same compound, the GI50 (usually the concentration that inhibits growth by half) in the experiment on HCT-15 is above 100 µM; in the experiment with NCI-H460 it was > 100 µM (inactive); in the experiment on SK-MEL-5 it was > 100 µM (inactive); with NCI-H23, > 100 µM (inactive); in the experiment with UACC-62, > 100 µM (inactive); in the experiment on T47D, > 100 µM (inactive). For the same compound, the GI50 in the experiment with K562, in the experiment with HOP-62, in the experiment with MDA-MB-231, with SR and with HOP-92 was > 100 µM (inactive) in each case.
As to `CC(C)/C(Cl)=N/OC(NC(=O)Nc1ccc(Cl)c(Cl)c1)(C(F)(F)F)C(F)(F)F`, the GI50 was 3.17 µM (inactive) in the experiment with COLO 205; 1.81 µM (inactive) in the experiment on SW-620; 11 µM (inactive) in the experiment with SN12C; 18.2 µM (inactive) in the experiment on SF-268; 18.2 µM (inactive) with KM12; 15.4 µM (inactive) in the experiment on HT-29. Moreover, the GI50 was 13.2 µM with HCT-15; 24.5 µM (inactive) in the experiment on NCI-H460; 15.8 µM (inactive) with SK-MEL-5; 17.8 µM (inactive) with NCI-H23; 16 µM (inactive) with UACC-62; 7.64 µM (inactive) in the experiment on T47D. Also, the GI50 in the experiment with K562 was 3.05 µM (inactive); in the experiment with HOP-62, 21.6 µM (inactive); in the experiment on MDA-MB-231, 15.5 µM (inactive); in the experiment with SR it was 3.56 µM (inactive); in the experiment on SK-OV-3, 18.2 µM (inactive); with HOP-92 it was 10.4 µM (inactive).
In the case of `COc1ccc(NC=O)c(C(O)CCNC(C)=O)c1` (configuration not stated), the GI50 in the experiment on SK-MEL-2, in the experiment on COLO 205, in the experiment on SW-620, in the experiment with SN12C, in the experiment on SF-268 and in the experiment on KM12 was > 100 µM (inactive) throughout. Further, the GI50 was > 100 µM (inactive) in the experiment with HT-29; above 100 µM with HCT-15; > 100 µM (inactive) in the experiment with NCI-H460; > 100 µM (inactive) in the experiment with SK-MEL-5; > 100 µM (inactive) with NCI-H23; > 100 µM (inactive) with UACC-62. In addition, the GI50 in the experiment on T47D, with K562, in the experiment on MDA-MB-231, with SR, with SK-OV-3 and in the experiment with HOP-92 was > 100 µM (inactive) in each case.
As for `CCOC(=O)NN(C(=O)OCC)C(C(=O)c1ccccc1)N(NC(=O)OCC)C(=O)OCC`, the GI50 in the experiment on COLO 205, in the experiment on SW-620, with SN12C, in the experiment on SF-268, with KM12 and in the experiment with HT-29 was > 100 µM (inactive) each time. Also, the GI50 is above 100 µM in the experiment with HCT-15; > 100 µM (inactive) in the experiment on NCI-H460; > 100 µM (inactive) in the experiment with SK-MEL-5; > 100 µM (inactive) with NCI-H23; > 100 µM (inactive) in the experiment with UACC-62; > 100 µM (inactive) with T47D. In addition, the GI50 with K562, with HOP-62, in the experiment on MDA-MB-231, with SR, with SK-OV-3 and in the experiment with HOP-92 was > 100 µM (inactive) in each case.
With `C=CCOC(=O)N1c2ccc(O)cc2[C@@]23O[C@@]24[C@@H]1C#C/C=C\C#C[C@]3(O)C(=O)C[C@@H]4C`, the GI50 with SK-MEL-2 is 77.8 µM (inactive); with COLO 205, 36.6 µM (inactive); in the experiment with SW-620, > 100 µM (inactive); with SN12C, 54.2 µM (inactive); with SF-268, 79.1 µM (inactive); with KM12, > 100 µM (inactive). Moreover, the GI50 in the experiment with HT-29 is 43.5 µM (inactive); with HCT-15, above 100 µM; in the experiment on NCI-H460, 11.5 µM (inactive); with SK-MEL-5, 21.5 µM (inactive); in the experiment on NCI-H23 it was 22.7 µM (inactive); with UACC-62 it was 99.8 µM (inactive). Moreover, the GI50 with T47D is > 100 µM (inactive); with K562 it was 59.7 µM (inactive); in the experiment on HOP-62 it was > 100 µM (inactive); in the experiment with MDA-MB-231 it was > 100 µM (inactive); in the experiment with SR, 15 µM (inactive); in the experiment on HOP-92, 72.9 µM (inactive).
For `C=CCC1(O)c2cccc(O)c2C(=O)c2cccc(O)c21` (configuration not stated), the GI50 is 12 µM (inactive) in the experiment on SK-MEL-2; 25.2 µM (inactive) in the experiment on SW-620; 23.3 µM (inactive) in the experiment with SF-268; 17.3 µM (inactive) with KM12; 22.1 µM (inactive) with HT-29; 12.2 µM in the experiment with HCT-15. In addition, the GI50 with NCI-H460 was 13.9 µM (inactive); in the experiment with SK-MEL-5 it was 10.7 µM (inactive); in the experiment on NCI-H23, 8.09 µM (inactive); in the experiment on T47D, 4.12 µM (inactive); in the experiment on K562 it was 6.71 µM (inactive); in the experiment with HOP-62, 21.4 µM (inactive). Besides, the GI50 in the experiment on MDA-MB-231 was 21.1 µM (inactive); with SR, 6.41 µM (inactive); in the experiment on HOP-92 it was 17.5 µM (inactive).
`O=C1Nc2ccccc2/C1=N/Nc1nc(-c2cccc([N+](=O)[O-])c2)cs1`: the GI50 with SK-MEL-2 is 31.5 µM (inactive); in the experiment on COLO 205, 27.1 µM (inactive); with SW-620 it was 36.8 µM (inactive); in the experiment with SN12C, 20.8 µM (inactive); in the experiment with SF-268, 19.7 µM (inactive); with KM12 it was 26.3 µM (inactive). Moreover, the GI50 in the experiment on HT-29 was 17.7 µM (inactive); with HCT-15 it was 21.8 µM; with NCI-H460, 16.9 µM (inactive); with SK-MEL-5, 20.2 µM (inactive); in the experiment with NCI-H23, 36.4 µM (inactive); with UACC-62 it was 26.7 µM (inactive). In addition, the GI50 is 27.3 µM (inactive) in the experiment on T47D; 24.1 µM (inactive) in the experiment with HOP-62; 17.7 µM (inactive) in the experiment on MDA-MB-231; 53 µM (inactive) in the experiment with SR; 29.9 µM (inactive) in the experiment with SK-OV-3; 20.1 µM (inactive) in the experiment with HOP-92.
`COC1CN(C)/C(=N\c2cccc3ccccc23)S1` (configuration not stated): the GI50 with COLO 205, in the experiment on SW-620, in the experiment with SN12C, in the experiment on SF-268, in the experiment on KM12 and in the experiment on HT-29 was > 10 µM (inactive) each time. In addition, the GI50 in the experiment with HCT-15 was above 10 µM; in the experiment on SK-MEL-5, > 10 µM (inactive); in the experiment on NCI-H23, > 10 µM (inactive); with UACC-62, > 10 µM (inactive); with T47D, > 10 µM (inactive); in the experiment on K562, > 10 µM (inactive). The GI50 in the experiment on HOP-62, with MDA-MB-231, in the experiment with SR, in the experiment on SK-OV-3 and in the experiment on HOP-92 was > 10 µM (inactive) throughout.
As to `O=c1[nH]nc(N/N=C\c2ccc(Cl)cc2)c2ccccc12`, the GI50 with SK-MEL-2 was 17.2 µM (inactive); with COLO 205, 19.5 µM (inactive); in the experiment with SW-620 it was 17.5 µM (inactive); with SN12C, 27.5 µM (inactive); in the experiment with SF-268 it was 23.2 µM (inactive); with KM12 it was 21 µM (inactive). The GI50 was 29.5 µM (inactive) in the experiment with HT-29; 17.9 µM in the experiment on HCT-15; 20.3 µM (inactive) with NCI-H460; 16.1 µM (inactive) in the experiment with SK-MEL-5; 23 µM (inactive) with NCI-H23; 20.5 µM (inactive) with UACC-62. Also, the GI50 in the experiment with T47D was 25.7 µM (inactive); in the experiment on K562 it was 20.9 µM (inactive); in the experiment on MDA-MB-231, 22.3 µM (inactive); in the experiment with SR, 3.9 µM (inactive); in the experiment on SK-OV-3, 18.5 µM (inactive); in the experiment with HOP-92, 16.9 µM (inactive).
As to `Cc1c(N)nc([C@H](CC(N)=O)NC[C@H](N)C(N)=O)nc1C(=O)N[C@H](C(=O)N[C@H](C)[C@@H](O)CC(=O)N[C@H](C(=O)NC(O[C@@H]1O[C@@H](C)[C@@H](N)[C@@H](O)[C@H]1O)C(O)c1nc(-c2nc(C(=O)NCCC[S+](C)C)cs2)cs1)[C@@H](C)O)[C@H](O[C@@H]1O[C@@H](CO)[C@@H](O)[C@H](O)[C@@H]1O[C@H]1O[C@H](CO)[C@@H](O)[C@H](OC(N)=O)[C@@H]1O)c1c[nH]cn1` (some centres not stated), the GI50 is > 100 µM (inactive) in the experiment on SK-MEL-2; > 100 µM (inactive) in the experiment with COLO 205; > 100 µM (inactive) with SW-620; > 100 µM (inactive) with SN12C; 39.2 µM (inactive) in the experiment with SF-268; 97.1 µM (inactive) in the experiment on KM12. Moreover, the GI50 in the experiment with HT-29 was 82.8 µM (inactive); with HCT-15, 34.4 µM; in the experiment with NCI-H460, 2.79 µM (inactive); in the experiment on SK-MEL-5 it was 28.8 µM (inactive); in the experiment with NCI-H23 it was > 100 µM (inactive); with UACC-62, 35.4 µM (inactive). In addition, the GI50 in the experiment on T47D is > 100 µM (inactive); in the experiment on HOP-62, 5.18 µM (inactive); in the experiment with MDA-MB-231, > 100 µM (inactive); in the experiment with SR it was 0.0109 µM (active); in the experiment with SK-OV-3 it was > 100 µM (inactive); in the experiment with HOP-92 it was 24.6 µM (inactive).
With `CC(CCC(=O)O)[C@H]1CCC2[C@H]3C(CC(=O)[C@@]21C)[C@@]1(C)CCC(O)C[C@H]1C[C@@H]3O` (some centres not stated), the GI50 in the experiment with SK-MEL-2, in the experiment on COLO 205, in the experiment on SW-620, in the experiment on SN12C, in the experiment on SF-268 and with KM12 was > 100 µM (inactive) in each case. Besides, the GI50 with HT-29 was > 100 µM (inactive); in the experiment with HCT-15, above 100 µM; with NCI-H460, > 100 µM (inactive); in the experiment on NCI-H23, > 100 µM (inactive); in the experiment on UACC-62, > 100 µM (inactive); with T47D, > 100 µM (inactive). Further, the GI50 in the experiment with K562, in the experiment with HOP-62, in the experiment with MDA-MB-231, in the experiment on SR and in the experiment on HOP-92 was > 100 µM (inactive) throughout.
